{"source": "patent US20240082196A1", "about": "“COMBINED USE OF UBENIMEX AND IMMUNE CHECKPOINT INHIBITOR” (NIPPON KAYAKU KABUSHIKI KAISHA, priority 2021, published 2024)", "key": {"[1]": {"tested_on": "mouse melanoma cells B16-F0", "test": "antitumor effect in B16-F0 subcutaneous transplantation model", "format": "in vivo", "details": "15 days after transplantation", "protocol": "The antitumor effect of the combined administration of ubenimex and the anti-mouse PD-1 antibody was evaluated with a model in which the mouse melanoma cells B16-F0 were subcutaneously transplanted. Fluctuation in cytokines and immune system markers was confirmed at the same time.\nFirst, 2×10^5 B16-F0 were subcutaneously transplanted to female C57BL/6N mice (Charles River Laboratories Japan, Inc.) to produce a subcutaneous transplantation model.\nUbenimex was orally administered to subcutaneous transplantation model B16-F0 mice once a day, 14 times in total, in a dosage of 5 or 50 mg/kg from the day following the transplantation to 14 days after transplantation. Furthermore, an anti-mouse PD-1 antibody was intraperitoneally administered in a dosage of 200 μg/body 4, 7, 11, and 14 days after the transplantation. […]\nThe major axis and the minor axis of the tumors were measured with a digital micrometer caliper (Mitutoyo Corporation), and the tumor volumes (mm 3) were calculated by the expression “major axis×minor axis^2/2”. The relative tumor volume (T/C) of each treated group to the control group was calculated by the expression “average tumor volume of the test substance-treated group/average tumor volume of control group×100” using the tumor volume value 15 days after the transplantation. […]"}, "Tregs": {"tested_on": "Tregs", "test": "immunophenotyping of lymphocytes in peripheral blood by flow cytometry, B16-F0 model", "format": "in vivo, mouse", "details": "ubenimex alone", "protocol": "The blood collected by the autopsies after the confirmation of the antitumor effects was analyzed for lymphocytes in peripheral blood by flow cytometry.\nThe peripheral blood was subjected to hemolysis treatment with a Lysing Buffer to prepare peripheral blood mononuclear cells (PBMCs), the Fc receptors were then blocked with the anti-mouse CD16/32 antibody, and the cell surface markers CD45, CD3, CD4, CD8, and CD25 were stained. The PBMCs were fixed and permeabilized, and the nuclear factor FOXP3 was stained, and measurement was performed with the flow cytometer LSRII (Becton, Dickinson and Company).\nTregs identified using CD45+, CD3+, CD4+, CD25+, and FOXP3+ were used as indices for evaluation. The existence rate of Tregs in CD45-positive cells was calculated, and the number of Tregs per 1 μL of the peripheral blood was calculated from the value of the total white blood cell count."}, "[2]": {"test": "mouse blood concentration transition, single oral administration", "format": "in vivo", "details": "for AUC(0-inf) / Cmax / MRT inf / Tmax: fasted female C57BL/6N mice, plasma", "protocol": "First, 9 nine-week-old fasted female C57BL/6N mice (Charles River Laboratories Japan, Inc.) in each group were subjected to the single oral administration of 5 mg/kg or 50 mg/kg of ubenimex. Blood collecting time points were 9 time points that were time points 5, 10, and 30 minutes, 1, 3, 6, 8, 12, and 24 hours after the administration. Then, 0.1 mL of blood was collected from the jugular vein under isoflurane anesthesia from 5 minutes to 6 hours after the administration, and the whole blood was collected from the vena cava under isoflurane anesthesia 8 hours or more after the administration. To secure n=3 at each time point, the blood collection was sparse blood collection in which blood was collected from one individual at 3 time points, and three animals were replaced as one set. Plasma was prepared from the obtained blood, and the plasma ubenimex concentration was measured with a liquid chromatography mass spectrometer (LC/MS/MS)."}, "[3]": {"tested_on": "mouse colon adenocarcinoma cells MC38", "test": "antitumor effect in MC38 subcutaneous transplantation model", "format": "in vivo", "details": "25 days after transplantation", "protocol": "The antitumor effect of the combined administration of ubenimex and the anti-mouse PD-1 antibody was evaluated with a subcutaneous transplantation model of the mouse colon adenocarcinoma cells MC38.\nThen, 1×10^5 MC38 cells were subcutaneously transplanted into female C57BL/6N mice (Charles River Laboratories Japan, Inc.) to produce the subcutaneous transplantation model. Ubenimex was orally administered to each subcutaneous transplantation model mouse of MC38 in a dosage of 0.5 or 5 mg/kg once a day, 24 times in total, from the day following the transplantation to 24 days after the transplantation. Furthermore, the anti-mouse PD-1 antibody was intraperitoneally administered in a dosage of 50 μg/body 7, 11, 14, 18, 21, and 24 days after the transplantation. […]\nThe major axis and the minor axis of the tumors were measured with a digital micrometer caliper (Mitutoyo Corporation), and the tumor volumes (mm 3) were calculated by the expression “major axis×minor axis^2/2”. The relative tumor volume (T/C) of each treated group to the control group was calculated by the expression “average tumor volume of the test substance-treated group/average tumor volume of control group×100” using the tumor volume value 25 days after the transplantation. […]"}, "[4]": {"details": "ubenimex 5 mg/kg oral once daily"}}}
{"smiles": "CC(C)C[C@H](NC(=O)[C@@H](O)[C@H](N)Cc1ccccc1)C(=O)O", "note": "[ubenimex, (2S)-2-[(2S,3R)-3-amino-2-hydroxy-4-phenylbutanoylamino]-4-methylpentanoic acid]", "values": [{"measurement": "relative average tumor volume (T/C) to the control group", "setting": "[1]; [4]", "value": "did not exhibit tumor growth inhibition effect"}, {"measurement": "relative average tumor volume (T/C) to the control group", "setting": "[1]; ubenimex 50 mg/kg oral once daily", "value": "did not exhibit tumor growth inhibition effect"}, {"measurement": "numbers of Tregs in the peripheral blood", "setting": "Tregs", "value": "no change"}, {"measurement": "dosage proportionality", "setting": "[2]; dosage of 5 to 50 mg/kg in the mouse", "value": "dosage proportionality was generally obtained"}, {"measurement": "AUC(0-inf)", "setting": "[2]; mouse, 5 mg/kg single oral", "value": 3240, "unit": "ng·h/mL"}, {"measurement": "Cmax", "setting": "[2]; mouse, 5 mg/kg single oral", "value": 4600, "unit": "ng/mL"}, {"measurement": "MRT inf", "setting": "[2]; mouse, 5 mg/kg single oral", "value": 52.3, "unit": "min"}, {"measurement": "Tmax", "setting": "[2]; mouse, 5 mg/kg single oral", "value": 4.98, "unit": "min"}, {"measurement": "AUC(0-inf)", "setting": "[2]; mouse, 50 mg/kg single oral", "value": 47700, "unit": "ng·h/mL"}, {"measurement": "Cmax", "setting": "[2]; mouse, 50 mg/kg single oral", "value": 44000, "unit": "ng/mL"}, {"measurement": "MRT inf", "setting": "[2]; mouse, 50 mg/kg single oral", "value": 55.1, "unit": "min"}, {"measurement": "Tmax", "setting": "[2]; mouse, 50 mg/kg single oral", "value": 10.2, "unit": "min"}, {"measurement": "AUCinf, ratio of 50 mg/5 mg", "setting": "[2]; single oral, mouse", "value": 14.7, "unit": "times"}, {"measurement": "Cmax, ratio of 50 mg/5 mg", "setting": "[2]; single oral, mouse", "value": 9.57, "unit": "times"}, {"measurement": "MRTinf, ratio of 50 mg/5 mg", "setting": "[2]; single oral, mouse", "value": 1.05, "unit": "times"}, {"measurement": "relative average tumor volume (T/C) to the control group", "setting": "[3]; ubenimex 0.5 mg/kg oral once daily", "value": 62, "unit": "%"}, {"measurement": "relative average tumor volume (T/C) to the control group", "setting": "[3]; [4]", "value": 51, "unit": "%"}]}
